In patent US8952024B2, “Herbicidal pyrimidone derivatives” (E I du Pont de Nemours and Company, priority 2009, dated 2015):

How the values were obtained:
Assay in all cases: Test D pre-/postemergence plant response
Type in all cases: in vivo
[1] = tested on: Italian ryegrass (Lolium multiflorum)
In short: (§1)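 Each species was planted in mixed loam and sand, treated either before emergence or at the 1- to 4-leaf stage, then kept under glass for 14 to 21 days. Plant response was scored by eye from 0 to 100 relative to controls; a dash marks no result.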

[2] = tested on: Surinam grass (Brachiaria decumbens)
In short: as §1

[3] = tested on: bermudagrass (Cynodon dactylon)
In short: as §1

[4] = tested on: black mustard (Brassica nigra)
In short: as §1

[5] = tested on: dayflower (Virginia (VA) dayflower, Commelina virginica)
In short: as §1

[6] = tested on: field bindweed (Convolvulus arvensis)
In short: as §1

[7] = tested on: groundsel (common groundsel, Senecio vulgaris); conditions: Postemergence
In short: as §1

[8] = tested on: guineagrass (Panicum maximum)
In short: as §1

[9] = tested on: mallow (common mallow, Malva sylvestris)
In short: as §1

[10] = tested on: naked crabgrass (Digitaria nuda)
In short: as §1

[11] = tested on: quackgrass (Elytrigia repens)
In short: as §1

[12] = tested on: sandbur (southern sandbur, Cenchrus echinatus)
In short: as §1

[13] = tested on: signalgrass (broadleaf signalgrass, Brachiaria platyphylla)
In short: as §1

[14] = tested on: spanishneedles (Bidens bipinnata)
In short: as §1

[15] = Postemergence, 16 g ai/ha, scale 0 to 100
[16] = Postemergence, 31 g ai/ha, scale 0 to 100
[17] = Postemergence, 125 g ai/ha, scale 0 to 100 (0 no effect, 100 complete control)
[18] = Postemergence, 62 g ai/ha, scale 0 to 100 (0 no effect, 100 complete control)
[19] = Preemergence, 16 g ai/ha, scale 0 to 100, 0 no effect, 100 complete control
[20] = Preemergence, 31 g ai/ha, scale 0 to 100 (0 no effect, 100 complete control)
[21] = Preemergence, 125 g ai/ha, scale 0 to 100
[22] = Postemergence, 31 g ai/ha, scale 0 to 100 (0 no effect, 100 complete control)
[23] = Preemergence, 62 g ai/ha, scale 0 to 100

## O=C1CCCC(O)=C1C(=O)c1cnc(-c2cccs2)n(-c2ccccc2)c1=O [Compound 66]
[1]; [15]
  Plant response rating, Ryegrass, Italian: 0
[1]; [16]
  Plant response rating, Ryegrass, Italian: 0
[1]; [17]
  Plant response rating, Ryegrass, Italian: 15
[1]; [18]
  Plant response rating, Ryegrass, Italian: 0
[1]; [19]
  Plant response rating, Ryegrass, Italian: 0
[1]; [20]
  Plant response rating, Ryegrass, Italian: 0
[1]; [21]
  Plant response rating, Ryegrass, Italian: 0
[2]; [16]
  Plant response rating, Surinam Grass: 60
[2]; [17]
  Plant response rating, Surinam Grass: 90
[2]; [18]
  Plant response rating, Surinam Grass: 90
[2]; [19]
  Plant response rating, Surinam Grass: 0
[2]; [20]
  Plant response rating, Surinam Grass: 80
[2]; [21]
  Plant response rating, Surinam Grass: 98
[3]; [15]
  Plant response rating, Bermudagrass: 5
[3]; [22]
  Plant response rating, Bermudagrass: 50
[3]; [17]
  Plant response rating, Bermudagrass: 65
[3]; [18]
  Plant response rating, Bermudagrass: 65
[3]; [19]
  Plant response rating, Bermudagrass: 0
[3]; [20]
  Plant response rating, Bermudagrass: 0
[3]; [23]
  Plant response rating, Bermudagrass: 5
[3]; [21]
  Plant response rating, Bermudagrass: 5
[4]; [15]
  Plant response rating, Black Mustard: 0
[4]; [22]
  Plant response rating, Black Mustard: 20
[4]; [17]
  Plant response rating, Black Mustard: 98
[4]; [18]
  Plant response rating, Black Mustard: 50
[4]; [19]
  Plant response rating, Black Mustard: 0
[4]; [20]
  Plant response rating, Black Mustard: 5
[4]; [23]
  Plant response rating, Black Mustard: 35
[4]; [21]
  Plant response rating, Black Mustard: 80
[5]; [15]
  Plant response rating, Dayflower, VA: 0
[5]; [16]
  Plant response rating, Dayflower, VA: 0
[5]; [17]
  Plant response rating, Dayflower, VA: 30
[5]; [18]
  Plant response rating, Dayflower, VA: 0
[5]; [19]
  Plant response rating, Dayflower, VA: 0
[5]; [20]
  Plant response rating, Dayflower, VA: 0
[5]; [23]
  Plant response rating, Dayflower, VA: 0
[5]; [21]
  Plant response rating, Dayflower, VA: 5
[6]; [15]
  Plant response rating, Field Bindweed: 0
[6]; [16]
  Plant response rating, Field Bindweed: 0
[6]; [17]
  Plant response rating, Field Bindweed: 0
[6]; [18]
  Plant response rating, Field Bindweed: 0
[6]; [19]
  Plant response rating, Field Bindweed: 0
[6]; [20]
  Plant response rating, Field Bindweed: 0
[6]; [23]
  Plant response rating, Field Bindweed: 0
[6]; [21]
  Plant response rating, Field Bindweed: 20
[7]; 31 g ai/ha, scale 0 to 100
  Plant response rating, Groundsel: 60
[7]; 125 g ai/ha, scale 0 to 100 (0 no effect, 100 complete control)
  Plant response rating, Groundsel: 80
[7]; 62 g ai/ha, scale 0 to 100 (0 no effect, 100 complete control)
  Plant response rating, Groundsel: 80
[8]; [15]
  Plant response rating, Guineagrass: 5
[8]; [16]
  Plant response rating, Guineagrass: 5
[8]; [17]
  Plant response rating, Guineagrass: 30
[8]; [18]
  Plant response rating, Guineagrass: 10
[8]; [19]
  Plant response rating, Guineagrass: 0
[8]; [20]
  Plant response rating, Guineagrass: 0
[8]; [23]
  Plant response rating, Guineagrass: 0
[8]; [21]
  Plant response rating, Guineagrass: 65
[9]; [15]
  Plant response rating, Mallow: 25
[9]; [16]
  Plant response rating, Mallow: 30
[9]; [17]
  Plant response rating, Mallow: 60
[9]; [18]
  Plant response rating, Mallow: 60
[9]; [19]
  Plant response rating, Mallow: 0
[9]; [20]
  Plant response rating, Mallow: 0
[9]; [23]
  Plant response rating, Mallow: 5
[9]; [21]
  Plant response rating, Mallow: 75
[10]; [16]
  Plant response rating, Crabgrass, Naked: 50
[10]; [17]
  Plant response rating, Crabgrass, Naked: 70
[10]; [18]
  Plant response rating, Crabgrass, Naked: 65
[10]; [19]
  Plant response rating, Crabgrass, Naked: 0
[10]; [20]
  Plant response rating, Crabgrass, Naked: 0
[10]; [23]
  Plant response rating, Crabgrass, Naked: 10
[10]; [21]
  Plant response rating, Crabgrass, Naked: 25
[11]; [15]
  Plant response rating, Quackgrass: 0
[11]; [16]
  Plant response rating, Quackgrass: 5
[11]; [17]
  Plant response rating, Quackgrass: 5
[11]; [18]
  Plant response rating, Quackgrass: 5
[11]; [19]
  Plant response rating, Quackgrass: 0
[11]; [20]
  Plant response rating, Quackgrass: 0
[11]; [21]
  Plant response rating, Quackgrass: 0
[12]; [16]
  Plant response rating, Sandbur: 35
[12]; [17]
  Plant response rating, Sandbur: 90
[12]; [18]
  Plant response rating, Sandbur: 35
[12]; [19]
  Plant response rating, Sandbur: 0
[12]; [20]
  Plant response rating, Sandbur: 5
[12]; [21]
  Plant response rating, Sandbur: 80
[13]; [15]
  Plant response rating, Signalgrass: 0
[13]; [16]
  Plant response rating, Signalgrass: 10
[13]; [17]
  Plant response rating, Signalgrass: 30
[13]; [18]
  Plant response rating, Signalgrass: 30
[13]; [19]
  Plant response rating, Signalgrass: 0
[13]; [20]
  Plant response rating, Signalgrass: 5
[13]; [21]
  Plant response rating, Signalgrass: 5
[14]; [15]
  Plant response rating, Spanishneedles: 65
[14]; [16]
  Plant response rating, Spanishneedles: 70
[14]; [17]
  Plant response rating, Spanishneedles: 80
[14]; [18]
  Plant response rating, Spanishneedles: 80
[14]; [19]
  Plant response rating, Spanishneedles: 0
[14]; [20]
  Plant response rating, Spanishneedles: 60
[14]; [21]
  Plant response rating, Spanishneedles: 95
